Test results from patent EP0858509B1, “DNA SEQUENCES ENCODING CMH-1, A CYSTEINE PROTEASE INVOLVED IN APOPTOSIS” (VERTEX PHARMACEUTICALS INCORPORATED, priority 1995, dated 1997).

Target: T1, CMH-1 (Homo sapiens, UniProt P55210)
T1 construct: we expressed an N-terminal (His)6-tagged CMH-1(Ala24-Gln303) in E. coli; made in house; host or cells: E. coli BL21(DE3), pET-15b
T1 sequence (P55210 24-303): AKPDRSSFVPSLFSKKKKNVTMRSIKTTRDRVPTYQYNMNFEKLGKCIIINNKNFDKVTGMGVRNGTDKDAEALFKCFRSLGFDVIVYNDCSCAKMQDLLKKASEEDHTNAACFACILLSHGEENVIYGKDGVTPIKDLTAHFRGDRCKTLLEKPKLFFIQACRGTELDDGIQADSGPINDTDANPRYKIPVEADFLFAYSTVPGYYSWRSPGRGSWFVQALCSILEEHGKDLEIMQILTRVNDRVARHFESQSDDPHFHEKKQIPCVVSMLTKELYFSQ
T1 sequence (P55210 199-303): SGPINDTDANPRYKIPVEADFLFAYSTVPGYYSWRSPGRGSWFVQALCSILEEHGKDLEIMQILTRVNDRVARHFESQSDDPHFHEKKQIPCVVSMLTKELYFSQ
Test: Inhibition of in vitro cleavage of 35S-labelled PARP by CMH-1 (SDS-PAGE and fluorography)
Format: biochemical
Conditions: 35S-labelled PARP as substrate, Fig. 4, panel B
Description: In order to determine the activity of purified CMH-1, we determined whether the protein could cleave ^35[S]-labeled pro-IL-1b and PARP and compared its cleavage activity to purified ICE. We prepared ^35[S]-labeled PARP and IL-1b precursor (pro-IL-1b) by in vitro transcription and translation. Cleavage experiments were carried out as described previously [Y. Gu et al., J. Biol. Chem. (1995)]. Cleavage products were analyzed by SDS-PAGE and fluorography as described in that reference.

Row | Molecule | inhibition of the cleavage activity of CMH-1
1 | CCN1C(=O)C=CC1=O [N-ethylmaleimide] | inhibited
2 | NC(=O)CI [iodoacetamide] | inhibited
3 | YVAD-CHO | not
